Like-named read-outs stand apart in the source and are kept apart here.
Target: T1, human type 1 glycine transporter (GlyT1) (Homo sapiens, UniProt P48067)
T1 construct: T98G cells (glioma cells) expressing human type 1 glycine transporter (GlyT1) were used; endogenous in cells; host or cells: T98G cells (human glioma cells)
T1 sequence (P48067 1-706): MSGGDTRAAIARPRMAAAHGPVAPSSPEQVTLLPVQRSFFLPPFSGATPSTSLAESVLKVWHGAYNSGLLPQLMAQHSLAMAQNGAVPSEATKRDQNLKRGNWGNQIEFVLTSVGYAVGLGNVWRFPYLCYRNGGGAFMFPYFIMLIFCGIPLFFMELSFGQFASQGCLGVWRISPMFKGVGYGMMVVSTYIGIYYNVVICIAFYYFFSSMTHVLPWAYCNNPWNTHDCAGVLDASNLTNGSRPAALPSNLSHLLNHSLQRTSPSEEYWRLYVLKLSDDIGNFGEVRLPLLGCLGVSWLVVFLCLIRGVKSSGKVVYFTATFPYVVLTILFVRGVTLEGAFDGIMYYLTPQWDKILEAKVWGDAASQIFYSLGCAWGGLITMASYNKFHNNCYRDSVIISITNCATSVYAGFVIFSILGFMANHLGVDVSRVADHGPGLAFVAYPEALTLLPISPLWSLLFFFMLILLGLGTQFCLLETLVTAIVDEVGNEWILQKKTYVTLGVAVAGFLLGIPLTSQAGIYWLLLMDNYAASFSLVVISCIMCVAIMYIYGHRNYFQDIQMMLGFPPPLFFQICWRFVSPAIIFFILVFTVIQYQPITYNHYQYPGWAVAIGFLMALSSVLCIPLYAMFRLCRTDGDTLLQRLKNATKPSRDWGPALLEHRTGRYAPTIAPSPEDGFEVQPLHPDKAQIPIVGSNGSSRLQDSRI
Experiment: Glycine uptake inhibition experiment ([3H] glycine uptake in T98G cells expressing GlyT1)
Format: cell-based
Summary of the method: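 T98G glioma cells expressing human GlyT1 were pretreated 10 min with compound in HEPES buffer pH 7.4 (0.2% BSA), then incubated with compound plus 250 nM final [3H]glycine for 15 min at room temperature. Intracellular radioactivity was counted after NaOH lysis; 10 μM ALX5407 defined non-specific uptake. IC50 came from 10^−9–10^−5 M curves.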

[1] = table section whose head prints (μm)

| IC50 (glycine uptake inhibition) [nM] | IC50 [nM] | SMILES | also measured |
| --- | --- | --- | --- |
|  | 2.1 | C[C@H](O)c1cccc2c1C(F)(F)C(=O)N2Cc1cnc(F)c(Br)c1 [Compound 228, 1-[(5-bromo-6-fluoropyridin-3-yl)methyl]-3,3-difluoro-4-[(1S)-1-hydroxyethyl]-1,3-dihydro-2H-indol-2-one] |  |
| 4600 |  | CC(O)c1cccc2c1C(F)(F)C(=O)N2Cc1ccnc(Cl)c1 (single isomer, unassigned) [Compound 34, 1-[(2-chloropyridin-4-yl)methyl]-3,3-difluoro-4-(1-hydroxyethyl)-1,3-dihydro-2H-indol-2-one] |  |
| 280 |  | O=C1N(Cc2ccnc(Cl)c2)c2cccc(C(O)C(F)F)c2C1(F)F (single isomer, unassigned) [Compound 35] |  |
| 1900 |  | O=C1N(Cc2cncc(Cl)c2)c2cccc(C(O)C(F)(F)F)c2C1(F)F (single isomer, unassigned) [Compound 22, 1-[(5-chloropyridin-3-yl)methyl]-3,3-difluoro-4-(2,2,2-trifluoro-1-hydroxyethyl)-1,3-dihydro-2H-indol-2-one] |  |
| 200 |  | O=C1N(Cc2ccnc(F)c2)c2cccc([C@@H](O)C(F)(F)F)c2C1(F)F [Compound 149, 3,3-difluoro-1-[(2-fluoropyridin-4-yl)methyl]-4-[(1R)-2,2,2-trifluoro-1-hydroxyethyl]-1,3-dihydro-2H-indol-2-one] |  |
| 130 |  | O=C1N(Cc2cccc(C(F)F)n2)c2cccc(C(O)C(F)F)c2C1(F)F (single isomer, unassigned) [Compound 153, 4-(2,2-difluoro-1-hydroxyethyl)-1-{[6-(difluoromethyl)pyridin-2-yl]methyl}-3,3-difluoro-1,3-dihydro-2H-indol-2-one] |  |
| 170 |  | O=C1N(Cc2cncc(Cl)c2)c2ccc(F)c(C(O)C(F)(F)F)c2C1(F)F (single isomer, unassigned) [Compound 50, 1-[(5-chloropyridin-3-yl)methyl]-3,3,5-trifluoro-4-(2,2,2-trifluoro-1-hydroxyethyl)-1,3-dihydro-2H-indol-2-one] |  |
|  | 620 | O=C1N(Cc2cncc(Cl)c2)c2cc(F)cc(C(O)C(F)F)c2C1(F)F (stereo not drawn) [Compound 234, 1-[(5-chloropyridin-3-yl)methyl)-4-(2,2-difluoro-1-hydroxyethyl)-3,3,6-trifluoro-1,3-dihydro-2H-indol-2-one] |  |
|  | 20 | C[C@H](O)c1cccc2c1C(F)(F)C(=O)N2Cc1cnc(Cl)c(C#N)c1 [Compound 251, 2-chloro-5-({3,3-difluoro-4-[(1S)-1-hydroxyethyl]-2-oxo-2,3-dihydro-1H-indol-1-yl)methyl)pyridine-3-carbonitrile] |  |
|  | 48 | COc1cc(CN2C(=O)C(F)(F)c3c(C(O)C(F)F)cccc32)ccn1 (single isomer, unassigned) [Compound 165, 4-(2,2-difluoro-1-hydroxyethyl)-3,3-difluoro-1-[(2-methoxypyridin-4-yl)methyl]-1,3-dihydro-2H-indol-2-one] |  |
|  | 66 | CCOc1ccc(CN2C(=O)C(F)(F)c3c([C@H](C)O)cccc32)cn1 [Compound 241, 1-[(6-ethoxypyridin-3-yl)methyl]-3,3-difluoro-4-[(1S)-1-hydroxyethyl]-1,3-dihydro-2H-indol-2-one] |  |
|  | 47 | O=C1N(Cc2cncc(Cl)c2)c2c(F)ccc(C(O)C(F)F)c2C1(F)F (single isomer, unassigned) [Compound 253, 1-[(5-chloropyridin-3-yl)methyl]-4-(2,2-difluoro-1-hydroxyethyl)-3,3,7-trifluoro-1,3-dihydro-2H-indol-2-one] |  |

More lines, now with the values behind:

| SMILES | IC50 (glycine uptake inhibition) [nM] | IC50 [nM] | also measured |
| --- | --- | --- | --- |
| C[C@H](O)c1cccc2c1C(F)(F)C(=O)N2Cc1n[nH]c2ccccc12 [Compound 89, 3,3-difluoro-4-[(1S)-1-hydroxyethyl]-1-(1H-indazol-3-ylmethyl)-1,3-dihydro-2H-indol-2-one] | 190 |  |  |
| C[C@H](O)c1cccc2c1C(F)(F)C(=O)N2Cc1cc(C(F)(F)F)c(Cl)cn1 [Compound 212, 1-{[5-chloro-4-(trifluoromethyl)pyridin-2-yl]methyl}-3,3-difluoro-4-[(1S)-1-hydroxyethyl]-1,3-dihydro-2H-indol-2-one] |  | 8.2 |  |
| O=C1N(Cc2cccc(C(F)(F)F)n2)c2cccc(C(O)C(F)F)c2C1(F)F (single isomer, unassigned) [Compound 257, 4-(2,2-difluoro-1-hydroxyethyl)-3,3-difluoro-1-{[6-(trifluoromethyl)pyridin-2-yl]methyl)-1,3-dihydro-2H-indol-2-one] |  |  | IC50 [1]: 110 nM |
| C[C@H](O)c1c(Cl)ccc2c1C(F)(F)C(=O)N2Cc1ccnc(C#N)c1 [Compound 107, 4-({5-chloro-3,3-difluoro-4-[(1S)-1-hydroxyethyl]-2-oxo-2,3-dihydro-1H-indol-1-yl}methyl)pyridine-2-carbonitrile] | 150 |  |  |
| C[C@H](O)c1cccc2c1C(F)(F)C(=O)N2Cc1ccc(Cl)nc1C#N [Compound 248, 6-chloro-3-({3,3-difluoro-4-[(1S)-1-hydroxyethyl]-2-oxo-2,3-dihydro-1H-indol-1-yl}methyl)pyridine-2-carbonitrile] |  | 1200 |  |
| C[C@H](O)c1cccc2c1C(F)(F)C(=O)N2Cc1nc2cnccc2c(=O)n1C [Compound 111, 2-({3,3-difluoro-4-[(1s)-1-hydroxyethyl]-2-oxo-2,3-dihydro-1H-indol-1-yl}methyl)-3-methylpyrido[3,4-d]pyrimidin-4(3H)-one] | 130 |  |  |
| C[C@H](O)c1cccc2c1C(F)(F)C(=O)N2Cc1nc2ccccc2[nH]c1=O [Compound 98, 3-({3,3-difluoro-4-[(1S)-1-hydroxyethyl]-2-oxo-2,3-dihydro-1H-indol-1-yl}methyl) quinoxalin-2(1H)-one] | 34 |  |  |
| C[C@H](O)c1cccc2c1C(F)(F)C(=O)N2Cc1ccc(-n2ccnn2)nc1 [Compound 197, 3,3-difluoro-4-[(1S)-1-hydroxyethyl]-1-{[6-(1H-1,2,3-triazol-1-yl)pyridin-3-yl]methyl)-1,3-dihydro-2H-indol-2-one] |  | 6700 |  |
| Cn1c(CN2C(=O)C(F)(F)c3c([C@@H](O)C(F)(F)F)cccc32)nc2ccccc2c1=O [Compound 37, 2-({3,3-difluoro-2-oxo-4-[(1R)-2,2,2-trifluoro-1-hydroxyethyl]-2,3-dihydro-1H-indol-1-yl}methyl)-3-methylquinazolin-4(3H)-one] | 43 |  |  |
| C[C@H](O)c1cccc2c1C(F)(F)C(=O)N2Cc1ccncc1Cl [Compound 185, 1-[(3-chloropyridin-4-yl)methyl]-3,3-difluoro-4-[(1S)-1-hydroxyethyl]-1,3-dihydro-2H-indol-2-one] |  | 280 |  |
| COc1nc(CN2C(=O)C(F)(F)c3c(C(O)C(F)F)cccc32)ccc1F (single isomer, unassigned) [Compound 265, 4-(2,2-difluoro-1-hydroxyethyl)-3,3-difluoro-1-[(5-fluoro-6-methoxypyridin-2-yl)methyl]-1,3-dihydro-2H-indol-2-one] |  |  | IC50 [1]: 930 nM |
| CCC(O)c1cccc2c1C(F)(F)C(=O)N2Cc1cccc(Cl)n1 (stereo not drawn) [Compound 15, 1-[(6-chloropyridin-2-yl)methyl]-3,3-difluoro-4-(1-hydroxypropyl)-1,3-dihydro-2H-indol-2-one] | 180 |  |  |
| O=C1N(Cc2cc(Cl)c(F)cn2)c2cccc(C(O)C(F)F)c2C1(F)F (single isomer, unassigned) [Compound 266, 1-[(4-chloro-5-fluoropyridin-2-yl)methyl]-4-(2,2-difluoro-1-hydroxyethyl)-3,3-difluoro-1,3-dihydro-2H-indol-2-one] |  |  | IC50 [1]: 21 nM |
| C[C@H](O)c1cccc2c1C(F)(F)C(=O)N2Cc1ccc(F)cn1 [Compound 114, 3,3-difluoro-1-[(5-fluoropyridin-2-yl)methyl]-4-[(1S)-1-hydroxyethyl]-1,3-dihydro-2H-indol-2-one] | 61 |  |  |
| CC(O)c1cccc2c1C(F)(F)C(=O)N2Cc1cccc(Cl)n1 (stereo not drawn) [Compound 1, 1-[(6-chloropyridin-2-yl)methyl]-3,8-difluoro-4-(1-hydroxyethyl)-1,3-dihydro-2H-indol-2-one] | 15 |  |  |
| O=C1N(Cc2cncc(OC(F)F)c2)c2cccc(C(O)C(F)F)c2C1(F)F (single isomer, unassigned) [Compound 258, 4-(2,2-difluoro-1-hydroxyethyl)-1-{[5-(difluoromethoxy)pyridin-3-yl]methyl}-3,3-difluoro-1,3-dihydro-2H-indol-2-one] |  |  | IC50 [1]: 120 nM |
| C[C@H](O)c1cccc2c1C(F)(F)C(=O)N2Cc1cccc(C#N)c1 [Compound 57, 3-({3,3-difluoro-4-[(1S)-1-hydroxyethyl]-2-oxo-2,3-dihydro-1H-indol-1-yl}methyl) benzonitrile] | 15 |  |  |
| [2H]C([2H])(c1cccc(Cl)n1)N1C(=O)C(F)(F)c2c([C@H](C)O)cccc21 [Compound 205, 1-[(6-chloropyridin-2-yl)(2H2)methyl]-3,3-difluoro-4-[(1S)-1-hydroxyethyl]-1,3-dihydro-2H-indol-2-one] |  | 5.6 |  |
